Measurements published in patent publication US20250281500A1, “FUSED AMINO PYRIMIDINE COMPOUNDS AND PRIDOPIDINE FOR TREATMENT OF HUNTINGTON’S DISEASE” (Ovid Therapeutics Inc., priority 2024, published 2025).

Columns and labels:
[1] = test system: mice; test: KA induced ongoing SE, EEG, treatment with DZ or DZ/Compound A 2 h after KA; format: in vivo; conditions: given 2 h after KA
Protocol: EEG recordings and analysis. WT C57Bl/6J adult male mice (12 weeks) were anesthetized with isofluorane and implanted with EEG/EMG electrodes and allowed to recover for 7 days prior to experimentation. […] 2 h following KA administration mice were injected with a saturating concentration of diazepam (DZ) 10 mg/kg (IP) and recordings were extended for a further 60 min. […] LabChart 8 software was used for data analysis. Epileptiform activity was identified by changes in the amplitude of electrographic activity characterized by consistent changes in the power of the Fast Fourier transform (FFT) of the EEG and abnormal activity characterized by periods of rhythmic spiking lasting longer than 30 s (Moore et al., 2017, supra; Silayeva et al., 2015, supra; Sivakumaran et al., J. Neurosci. 35, 8291-8296 (2015)).
To evaluate the potential of KCC2 activators to terminate ongoing SE, the KA model described above was employed. Mice were injected with KA (20 mg/Kg; IP). […] Spectral data were then subjected to FFT and the total EEG power between 1-100 Hz of the 2 h following KA treatment (pre-drug) and 30 min following their injection (post-drug) were compared (FIG. 6B). In mice treated with DZ alone variable effects were observed, from large increases to modest reductions in EEG power, but these effects were not significant (FIG. 6C; pre=1.1±0.2×10^−6, post=4.4±7.4×10^−7 μV^2, p=0.214, n=13-14 mice). […]

[2] = test system: panel of 144 protein kinases; test: SelectScreen panel of 144 protein kinases; format: biochemical; conditions: incl. PKC isoforms, OSR1, SPAK, WNK

Row | Structure (SMILES) | mice insensitive to the effects of DZ on EEG power [1] | activity of a panel of 144 protein kinases [2]
1 | CN1C(=O)CN=C(c2ccccc2)c2cc(Cl)ccc21 [DZ, diazepam, reference compound] | 62% | 
2 | C[C@@H]1CN(c2nc3c(c(Nc4ccc(C5CCCCC5)cc4)n2)COC3)CCO1 [Compound A, (R)-N-(4-cyclohexylphenyl)-2-(2-methylmorpholino)-5,7-dihydrofuro[3,4-d]pyrimidin-4-amine] | abolished | did not modify the activity
